In ChEMBL document CHEMBL5724914, “Linking interpersonal differences in gut microbiota composition and drug biotransformation activity” (2024):

Tests used:
[1] = The drug is tested on Z-029 corresponding to rat gut metagenome with ENA study accession number: PRJEB37062 and ENA sample accession number: ERS12561828 for biotransformation under anaerobic condition. The drug concentrations were measured over 9 timepoints collected between 0 and 24 hours of incubation by liquid-chromatography-coupled mass spectrometry (LC–MS); settings: 2 µM
[2] = The drug is tested on Z-028 corresponding to mouse gut metagenome with ENA study accession number: PRJEB37062 and ENA sample accession number: ERS12561827 for biotransformation under anaerobic condition. The drug concentrations were measured over 9 timepoints collected between 0 and 24 hours of incubation by liquid-chromatography-coupled mass spectrometry (LC–MS); settings: 2 µM
[3] = The drug is tested on Z-024 corresponding to pig gut metagenome with ENA study accession number: PRJEB37062 and ENA sample accession number: ERS12561823 for biotransformation under anaerobic condition. The drug concentrations were measured over 9 timepoints collected between 0 and 24 hours of incubation by liquid-chromatography-coupled mass spectrometry (LC–MS); settings: 2 µM
[4] = The drug is tested on Z-020 corresponding to rabbit gut metagenome with ENA study accession number: PRJEB37062 and ENA sample accession number: ERS12561819 for biotransformation under anaerobic condition. The drug concentrations were measured over 9 timepoints collected between 0 and 24 hours of incubation by liquid-chromatography-coupled mass spectrometry (LC–MS); settings: 2 µM
[5] = The drug is tested on Z-018 corresponding to pig gut metagenome with ENA study accession number: PRJEB37062 and ENA sample accession number: ERS12561817 for biotransformation under anaerobic condition. The drug concentrations were measured over 9 timepoints collected between 0 and 24 hours of incubation by liquid-chromatography-coupled mass spectrometry (LC–MS); settings: 2 µM
[6] = The drug is tested on Z-012 corresponding to metagenome with ENA study accession number: PRJEB37062 and ENA sample accession number: ERS12561812 for biotransformation under anaerobic condition. The drug concentrations were measured over 9 timepoints collected between 0 and 24 hours of incubation by liquid-chromatography-coupled mass spectrometry (LC–MS); settings: 2 µM
[7] = The drug is tested on Z-011 corresponding to mouse gut metagenome with ENA study accession number: PRJEB37062 and ENA sample accession number: ERS12561811 for biotransformation under anaerobic condition. The drug concentrations were measured over 9 timepoints collected between 0 and 24 hours of incubation by liquid-chromatography-coupled mass spectrometry (LC–MS); settings: 2 µM
[8] = The drug is tested on Z-001 corresponding to mouse gut metagenome with ENA study accession number: PRJEB37062 and ENA sample accession number: ERS12561801 for biotransformation under anaerobic condition. The drug concentrations were measured over 9 timepoints collected between 0 and 24 hours of incubation by liquid-chromatography-coupled mass spectrometry (LC–MS); settings: 2 µM
[9] = The drug is tested on WLS-220 corresponding to human gut metagenome with ENA study accession number: PRJEB37062 and ENA sample accession number: ERS12561769 for biotransformation under anaerobic condition. The drug concentrations were measured over 9 timepoints collected between 0 and 24 hours of incubation by liquid-chromatography-coupled mass spectrometry (LC–MS); settings: 2 µM
[10] = The drug is tested on WLS-082 corresponding to human gut metagenome with ENA study accession number: PRJEB37062 and ENA sample accession number: ERS12561751 for biotransformation under anaerobic condition. The drug concentrations were measured over 9 timepoints collected between 0 and 24 hours of incubation by liquid-chromatography-coupled mass spectrometry (LC–MS); settings: 2 µM
[11] = The drug is tested on WLS-069 corresponding to human gut metagenome with ENA study accession number: PRJEB37062 and ENA sample accession number: ERS12561748 for biotransformation under anaerobic condition. The drug concentrations were measured over 9 timepoints collected between 0 and 24 hours of incubation by liquid-chromatography-coupled mass spectrometry (LC–MS); settings: 2 µM
[12] = The drug is tested on WLS-052 corresponding to human gut metagenome with ENA study accession number: PRJEB37062 and ENA sample accession number: ERS12561747 for biotransformation under anaerobic condition. The drug concentrations were measured over 9 timepoints collected between 0 and 24 hours of incubation by liquid-chromatography-coupled mass spectrometry (LC–MS); settings: 2 µM
[13] = The drug is tested on WLS-010 corresponding to human gut metagenome with ENA study accession number: PRJEB37062 and ENA sample accession number: ERS12561743 for biotransformation under anaerobic condition. The drug concentrations were measured over 9 timepoints collected between 0 and 24 hours of incubation by liquid-chromatography-coupled mass spectrometry (LC–MS); settings: 2 µM
[14] = human gut metagenome, 24 h, 2 µM
[15] = human gut metagenome, 24 h, 2 µM; remark: listed apart in the source
[16] = human gut metagenome, 24 h, 2 µM; remark: listed apart in the source
[17] = human gut metagenome, 24 h, 2 µM; remark: listed apart in the source
[18] = human gut metagenome, 24 h, 2 µM; remark: listed apart in the source
[19] = human gut metagenome, 24 h, 2 µM; remark: listed apart in the source
[20] = human gut metagenome, 24 h, 2 µM; remark: listed apart in the source
Further: call rule not given here.

## Cc1ccc(-c2nc3ccc(C)cn3c2CC(=O)N(C)C)cc1 [ZOLPIDEM]
[1]
  Bacterial Biotransformation: Compound NOT metabolized
[2]
  Bacterial Biotransformation: Compound NOT metabolized
[3]
  Bacterial Biotransformation: Compound NOT metabolized
[4]
  Bacterial Biotransformation: Compound NOT metabolized
[5]
  Bacterial Biotransformation: Compound NOT metabolized
[6]
  Bacterial Biotransformation: Compound NOT metabolized
[7]
  Bacterial Biotransformation: Compound NOT metabolized
[8]
  Bacterial Biotransformation: Compound NOT metabolized
[9]
  Bacterial Biotransformation: Compound metabolized
[10]
  Bacterial Biotransformation: Compound NOT metabolized
[11]
  Bacterial Biotransformation: Compound NOT metabolized
[12]
  Bacterial Biotransformation: Compound NOT metabolized
[13]
  Bacterial Biotransformation: Compound NOT metabolized
[14]
  Bacterial Biotransformation: Compound NOT metabolized
[15]
  Bacterial Biotransformation: Compound NOT metabolized
[16]
  Bacterial Biotransformation: Compound metabolized
[17]
  Bacterial Biotransformation: Compound metabolized
[18]
  Bacterial Biotransformation: Compound metabolized
[19]
  Bacterial Biotransformation: Compound metabolized
[20]
  Bacterial Biotransformation: Compound NOT metabolized
